Results taken from US11214625B2, “Application of PCSK9 inhibitors in the preparation of drugs for the treatment of inflammatory immune diseases” (priority 2015, dated 2022).
Entries after “also recorded” stand apart in the source; their conditions may differ.

B1: PCSK9 monoclonal antibody: PCSK9 monoclonal antibody used for Examples 6 and 7 is Evolocumab; SEQ ID NO:3-6 (antibody, chains of the INN, looked up, V domains shown)
VH: EVQLVQSGAEVKKPGASVKVSCKASGYTLTSYGISWVRQAPGQGLEWMGWVSFYNGNTNYAQKLQGRGTMTTDPSTSTAYMELRSLRSDDTAVYYCARGYGMDVWGQGTTVTVSS
VL: ESALTQPASVSGSPGQSITISCTGTSSDVGGYNSVSWYQQHPGKAPKLMIYEVSNRPSGVSNRFSGSKSGNTASLTISGLQAEDEADYYCNSYTSTSMVFGGGTKLTVL

Experiments:
[1] = tested on: IMQ induced psoriatic lesions in BALB/c mice; experiment: External (cream) use on IMQ induced psoriatic lesions of mice; format: in vivo; details: for erythema, scales and infiltration in the back of the mice / score of erythema, scales, infiltration and total score: cream 0.01% once daily; for erythema, scales and infiltration in the back of the mice: 7 days pretreatment, then 6 days with IMQ; for score of erythema, scales, infiltration and total score: daily score during 6 days of IMQ; for adverse reaction: external ointment once a day; for efficacy compared between groups: external use (ointment/cream)
Method: (1) 40 SPF female BALB/c mice aged 6-8 weeks were randomly divided into normal control group, model group, PCSK9 inhibitor group and PCSK9 monoclonal antibody group. There were 10 mice for each group. After intraperitoneal injection of pentobarbital sodium 80 mg/kg, the back was shaved with an area of about 2 cm×3 cm. The mice were feed separately for 1 day.
(2) In normal control group, vaseline was applied locally. In model group, small molecule inhibitor group and monoclonal antibody group, 62.5 mg of 5% imiquimod cream was applied on the back every day for 6 consecutive days, and photos were taken and the PASI score was evaluated.
(3) Pretreatment: vaseline was applied on the back skin with mics in normal control group and model group, PCSK9 small molecule inhibitor cream (0.01% concentration) was applied to inhibitor group once daily. And, PCSK9 monoclonal antibody cream (0.01% concentration) was applied to monoclonal antibody group once daily.
(4) After 7 days pretreatment, vaseline was applied on the back skin with mice in normal control group. At the same time, 62.5 mg 5% imiquimod cream was regularly applied daily on the back with mice in model group, small molecule inhibitor group and monoclonal antibody group. PCSK9 small molecule inhibitor cream or PCSK9 monoclonal antibody cream was applied after one hour. For 6 consecutive days, photos were taken and the PASI score was evaluated.

[2] = tested on: IMQ induced psoriasis-like lesions in BALB/c mice; experiment: Subcutaneous injection in mice with IMQ induced psoriasis-like skin lesions; format: in vivo; details: for adverse reactions / therapeutic effect compared between groups: subcutaneous injection; for erythema, scales and infiltration in the back coating area: subcutaneous on first day (inhibitor 8 mg/kg, antibody 10 mg/kg), after 6 days of IMQ; for score of erythema, scales, infiltration and total score: subcutaneous, daily scoring during 6 days of IMQ
Method: The PCSK9 monoclonal antibody used for this example is Evolocumab. 40 SPF female BALB/c mice aged 6-8 weeks were randomly divided into normal control group, model group, PCSK9 small molecule inhibitor group and PCSK9 monoclonal antibody group. There were 10 mice for each group. After intraperitoneal injection of pentobarbital sodium 80 mg/kg, the back was shaved with an area of about 2 cm×3 cm. The mice were feed separately for 1 day.
(1) In normal control group, Vaseline was applied locally. In model group, inhibitor group and monoclonal antibody group, 62.5 mg of 5% imiquimod cream was applied on the back every day for 6 consecutive days, photos were taken and the PASI score was evaluated.
(2) On the first day, normal saline was subcutaneously administrated to normal control group and model group, PCSK9 small molecule inhibitor was subcutaneously administrated (8 mg/kg, Purchased from Selleck Inc.) to inhibitor group, and PCSK9 monoclonal antibody was subcutaneously administrated to monoclonal antibody group (10 mg/kg, Purchased from abcam Inc.)

[3] = tested on: CD4 T cells isolated from peripheral blood of patients with psoriasis, eczema and urticaria; experiment: Effect of PCSK9 protein on cytokine secretion of peripheral blood CD4+ T cells (ELISA); format: cell-based, human
Method: Materials: peripheral blood of 10 cases of psoriasis, 10 cases of eczema, 10 cases of urticaria, and 10 cases of normal people. ELISA kit was purchased from Raybiotech
After PBMC was isolated by Ficoll-Hypaque from human peripheral blood by density gradient centrifugation, washed with 10 times volume 1×BD beads buffer. Then 50 ul BD IMag TM CD4 beads were added to each […]. The beads were mixed well and incubated at room temperature for 30 minutes. 1 ml 1×BD magnetic bead buffer solution was added, and the cells were transferred to the round bottom tube and placed in the magnetic frame for 8 to 10 minutes. And then the supernatant was discarded and removed the test tube from the magnetic field. After resuspension of cells attached to tube wall with 1 ml 1×BD magnetic bead buffer, the tubes were placed in magnetic field for 2-4 min again. The supernatant was discarded removed it out of the magnetic field, resuspended the cells and placed the tube in the magnetic field for 2-4 min. The cells obtained from the […] can be used in subsequent experiments. BD IMag TM CD4 separation system was purchased from BD Biosciences Company.
The supernatant was collected after cell culture under different conditions. IFN-Gamma represented TH1 type cytokines, IL-4 represented TH2 type cytokines, and IL-17 represented TH17 cytokines. The detection of IFN-Gamma, IL-4, IL-17 was conducted by ELISA.

| Molecule | erythema, scales and infiltration in the back of the mice [1] | score of erythema, scales, infiltration and total score [1] | adverse reaction [1] | efficacy compared between groups [1] | adverse reactions [2] | therapeutic effect compared between groups [2] | erythema, scales and infiltration in the back coating area [2] | score of erythema, scales, infiltration and total score [2] | secretion of IL-17, IL-2 and IFN-Gamma by CD4 T cells ([3]; CD4 T cells of patients with psoriasis, eczema and urticaria, ELISA of supernatant) | expression of NFkb in CD4 T cells ([3]; especially in psoriatic patients) |
| --- | --- | --- | --- | --- | --- | --- | --- | --- | --- | --- |
| O=C(c1ccc(-n2nnc3cccnc32)cc1)N(c1ncccc1Cl)C1CCCNC1 (stereo not drawn) [PCSK9 small molecule inhibitor] | only slight erythema, scales and infiltration | significantly lower than that in PCSK9 monoclonal antibody group; also recorded: significantly reduce | no obvious adverse reaction | better than that of PCSK9 monoclonal antibody group; also recorded: significantly better than that of control group | no obvious adverse reactions | better than that of PCSK9 monoclonal antibody group; also recorded: significantly better than that of control group | only mild erythema, scales and infiltration | significantly lower than that of PCSK9 monoclonal antibody group; also recorded: reduce |  |  |
| PCSK9 protein: PCSK9 protein added to CD4 T cells of patients |  |  |  |  |  |  |  |  | significantly promote | increased |
| B1 | only slight erythema, scales and infiltration | significantly reduce | no obvious adverse reaction | significantly better than that of control group | no obvious adverse reactions | significantly better than that of control group | only mild erythema, scales and infiltration | reduce |  |  |
